Square brackets hold non-standard residues; d marks the D form. Ends that are not written are not given here. Cit = NC(=O)NCCC[C@H](N)C(=O)O
Assays:
Pan02 DR4 = Pan02 DR4 pancreatic tumour challenge; format: in vivo, DR4 transgenic mice; conditions: peptide immunisation 4 days after tumour challenge; none of unimmunized survived
splenocytes [1] = test: Peptide immunisation and ex vivo Elispot, DP4 mice; format: in vivo, HHD/HLA-DP4 transgenic mouse
Description: (§1) C57BL/6 mice (Charles River, UK), HLA-DR4 mice (Taconic, USA), HHDII/DR1 mice (Pasteur institute, France) and the HHD/HLA-DP4 transgenic strain of mouse as described in patent WO2013/017545 A1 (EMMA repository, France) were used, aged between 8 and 12 weeks, and cared for by the staff at Nottingham Trent University. All work was carried out under a Home Office project licence. Peptides were dissolved in PBS to 1 mg/ml and then emulsified (a series of dilutions) with different adjuvants: CpG and MPLA 6 μg/mouse of each (Invivogen, UK), Incomplete Freund's 50 μl/mouse (Sigma, UK), poly I:C 10 μg/mouse (Invivogen, UK), Imiquimod 25 μg/mouse (Invivogen, UK) and GMCSF 10 μg/mouse (Peprotech, UK). Peptides (25 μg/mouse) were injected subcutaneously at the base of the tail. DNA (1 μg/mouse) was coated onto 1.0 μm gold particles (BioRad, Hemel Hempstead, UK) using the manufacturer's instructions and administered intradermally by genegun (BioRad). Homspera (10 nM/mouse) (PeptideSynthetics, UK) was injected intradermally with genegun immunisation. Mice were immunized at either day 0 for peptide immunisation or days, 0 and 7 for genegun immunisation, unless otherwise stated. Spleens were removed for analysis at day 14 for peptide and day 20 for peptide or genegun immunisation unless stated otherwise.
(§2) Elispot assays were performed using murine IFNγ, IL-17 and IL-10 capture and detection reagents according to the manufacturer's instructions (Mabtech, Sweden). In brief, anti-IFNγ, IL-17 and IL-10 antibodies were coated onto wells of 96-well Immobilin-P plate. Synthetic peptides (at a variety of concentrations) and 5×10^5 per well splenocytes were added to the wells of the plate in triplicate. Tumour target cells were added where relevant at 5×10^4/well in triplicate and plates incubated for 40 hrs at 37° C. After incubation, captured IFN and IL-10 were detected by biotinylated anti-IFNγ and IL-10 antibodies and developed with a streptavidin alkaline phosphatase and chromogenic substrate. Spots were analysed and counted using an automated plate reader (Cellular Technologies Ltd).

PBMCs [2] = test: PBMC culture and IFNγ Elispot; format: cell-based, human; conditions: donors 1 and 4, PBMCs cultured 13 days; label = restimulating peptide
Description: PBMC were isolated from freshly drawn heparinised blood by Ficol-Hypaque (Sigma) gradient centrifugation. PBMC (1.5×10^6 cells/well) were stimulated with single peptides (final concentration 10 μg/ml) in RPMI containing 5% pooled autologous human serum, 2 mM glutamine, 20 mM HEPES, Penicillin-streptomycin (1%), 10 ng/ml recombinant human IL-15 and 5 ng/ml recombinant human IL-7 in a final volume of 2 ml. Recombinant human IL-2 was added on day 3 at 20 IU/ml. On day 13 cells were washed and added to human IFN elispot assay. Elispot assays were performed using human IFNγ capture and detection reagents according to the manufacturer's instructions (Mabtech, Sweden). In brief, anti-IFNγ antibody was coated onto wells of 96-well Immobilin-P plate. Synthetic peptides (at 10 μg/ml) and 1×10^5 per well PBMCs were added to the wells of the plate in quadruplicate and plates incubated for 20 hrs at 37° C. After incubation, captured IFNγ was detected by biotinylated anti-IFN antibody and developed with a streptavidin alkaline phosphatase and chromogenic substrate. Spots were analysed and counted using an automated plate reader (Cellular Technologies Ltd).

splenocytes [3] = test: Peptide immunisation and ex vivo Elispot, DR4 mice; format: in vivo, HLA-DR4 transgenic mouse
Description: as §1, §2

B16iDR4 = test: B16 tumour with IFNγ inducible DR4 (B16iDR4) challenge; format: in vivo, DR4 mice
Description: as §1
For tumour challenge experiments mice were challenged with 2.5×10^4 B16 DR4 cells or 1×10^6 LLC2/LLC2 DR4 cells, 2.5×10^5 Pan02 DR4 cells in matrigel or […] above. Tumour growth was monitored at 3-4 days intervals and mice were humanely euthanized once tumour reached ≥10 mm in diameter.

PBMCs [4] = test: Intracellular cytokine staining of PBMCs; format: cell-based, human; conditions: donor 4, cultured 13 days in Enolase 241cit, restimulated; label = restimulating peptide
Description: PBMC cultures were set up as detailed above. On day 14 PBMCs were washed and cultured with synthetic peptide (10 μg/ml) in the presence of brefeldin A for 20 hrs at 37° C. Cells were stained with cell surface markers CD4 and CD8 using PE-Cy5 and efluor450 labelled antibodies respectively. Cells were subsequently fixed and permeabilised and stained with IFNγ PE-Cy7 labelled antibody. After staining cells were fixed and analysed on Miltenyi MACSQuant flow cytometer.

[5] = DP4 mice immunised with human 241-260cit
[6] = DR4 mice immunised with human 241cit
[7] = DR4 mice, single immunisation 25 μg human 241cit + CpG/MPLA

VIGMDVAASEFF-CIT-SGKYDLD (VIGMDVAASEFF[Cit]SGKYDLD; listed as Homo sapiens) [Enolase 241cit]
survival at day 60 (Pan02 DR4): 50%
IFNγ response in presence of CD4 blocking antibody (splenocytes [1]; [5]): blocked
IFNγ response in presence of CD8 blocking antibody (splenocytes [1]; [5]): not
IFNγ response to shorter peptide spanning aa241-255 (splenocytes [1]; [5]): show cross reactivity
IL-10 in response to the cit peptide (splenocytes [1]; [5]): no IL-10
IFNγ response compared to the wild type peptides (splenocytes [1]; DP4 mice, three doses of human Enolase 241cit, label = restimulating peptide): increased IFNγ responses
IFNγ response in combination with imiquimod (splenocytes [1]; DP4 transgenic mice): induces IFNγ responses
IFNγ response in combination with poly I:C (splenocytes [1]; DP4 transgenic mice): induces IFNγ responses
IL-10 response in combination with poly I:C (splenocytes [1]; DP4 transgenic mice): no IL-10
IFNγ response on restimulation (PBMCs [2]): show responses
IFN response with GM-CSF (splenocytes [3]; 1 or 3 doses with 25 μg of peptide): Detectable responses
IFNγ response in CD4 depleted fraction (splenocytes [3]; [6]): not
IFNγ response in CD4 enriched fraction (splenocytes [3]; [6]): present
IFNγ response in presence of CD4 blocking antibody (GK1.5) (splenocytes [3]; [6]): significantly reduced
IL-10 production in response to peptide stimulation (splenocytes [3]; DR4 mice immunised with human 241cit, ex vivo IL-10 ELISpot): No significant increase in IL-10 production
IFNγ response in presence of human MHC class II blocking antibody (L243) (splenocytes [3]; DR4 mice immunised with human 241cit, label = restimulating peptide): significantly reduced
IFNγ response with adjuvant CpG/MPLA (splenocytes [3]; DR4 mice, single dose): detected
IFNγ response with adjuvant IFA (splenocytes [3]; DR4 mice, single dose): no IFNγ response
IL-10 response with adjuvant CpG/MPLA (splenocytes [3]; DR4 mice, single dose): not
IL-10 response with adjuvant IFA (splenocytes [3]; DR4 mice, single dose): detected
IFNγ responses after 6 and 14 days compared to after 2 days (splenocytes [3]; DR4 mice, single dose in CpG/MPLA): significantly increased
time after immunisation at which IFNγ response is detectable (splenocytes [3]; DR4 mice, single dose in CpG/MPLA, sacrificed after 2, 6 or 14 days): 6 days
IFNγ response to human citrullinated sequence compared to media (splenocytes [3]; [7]): significant IFNγ response
IFNγ response to mouse citrullinated sequence compared to media (splenocytes [3]; [7]): significant IFNγ response
immune response to human or mouse wild type (wt) sequence (splenocytes [3]; [7]): neither
IFNγ response in combination with poly I:C (splenocytes [3]; DR4 transgenic mice): induces IFNγ responses
IL-10 response in combination with poly I:C (splenocytes [3]; DR4 transgenic mice): no IL-10
response in the absence of adjuvant (splenocytes [3]; peptide immunisation without adjuvant): no response
survival at day 42 (B16iDR4; challenge 4 days prior to peptide immunisation, control 0%): 90%
tumour volume, median, day 17 post tumour implant (B16iDR4; challenge 4 days prior to peptide immunisation, control median 65 mm^3): 0 mm^3
survival 39 days after rechallenge (B16iDR4; immunised survivors rechallenged with B16iDR4 at day 42, all controls dead by day 29): 67%
IFNγ positive CD4 cells (PBMCs [4]): 0.44%

Reference: patent publication US11382985B2, “Anti-tumour immune responses to modified self-epitopes” (Scancell Limited, priority 2015, dated 2022)
